ChEMBL document CHEMBL3885881, “DrugMatrix”

Organism: Rattus norvegicus
Experiment: DrugMatrix - Regimen: Daily Repeat
Assay type: toxicity, organism-based, Sprague-Dawley
Parameters: regimen Daily Repeat, gender Male, age 6-8 weeks
Conditions: in vivo, po, route oral GAVAGE, […]; for ABSOLUTE BASOPHIL / ABSOLUTE EOSINOPHIL / ABSOLUTE LYMPHOCYTE / ABSOLUTE MONOCYTE / ABSOLUTE SEGMENTED NEUTROPHIL / BASOPHIL / EOSINOPHIL / ERYTHROCYTE COUNT / HEMATOCRIT / HEMOGLOBIN / LEUKOCYTE COUNT / LYMPHOCYTE / MEAN CORPUSCULAR HEMOGLOBIN / MEAN CORPUSCULAR HEMOGLOBIN CONCENTRATION / MEAN CORPUSCULAR VOLUME / MONOCYTE / NEUTROPHIL / NUCLEATED RED BLOOD CELLS / PLATELET COUNT: tissue Blood; for ALANINE AMINOTRANSFERASE / ALBUMIN / ALKALINE PHOSPHATASE / ASPARTATE AMINOTRANSFERASE / BLOOD UREA NITROGEN / CARBON DIOXIDE / CHLORIDE / CHOLESTEROL / CREATINE PHOSPHOKINASE / CREATININE / GLUCOSE / LACTATE DEHYDROGENASE / LIPASE / PHOSPHORUS / POTASSIUM / SODIUM / TOTAL BILIRUBIN / TOTAL PROTEIN / URIC ACID: tissue Plasma
[1] = 300 mg/kg, 120 h, dose level High, time 5 day
[2] = 72 h, dose 2.5 mg/Kg, dose level Low, time 3 day
[3] = 120 h, dose 2.5 mg/Kg, dose level Low, time 5 day

## CC(C)c1c(C(=O)Nc2ccccc2)c(-c2ccccc2)c(-c2ccc(F)cc2)n1CC[C@@H](O)C[C@@H](O)CC(=O)O [ATORVASTATIN]
[1]
  ABSOLUTE BASOPHIL: 0 CELLS/uL
  ABSOLUTE EOSINOPHIL: 0 CELLS/uL
  ABSOLUTE LYMPHOCYTE: 8045.67 CELLS/uL
  ABSOLUTE MONOCYTE: 74 CELLS/uL
  ABSOLUTE SEGMENTED NEUTROPHIL: 647 CELLS/uL
  BASOPHIL: 0%
  EOSINOPHIL: 0%
  ERYTHROCYTE COUNT: 6.15 x10E6/uL
  HEMATOCRIT: 38.73%
  HEMOGLOBIN: 15.2 G/DL
  LEUKOCYTE COUNT: 8.77 x10E3/uL
  LYMPHOCYTE: 92.33%
  MEAN CORPUSCULAR HEMOGLOBIN: 24.73 pg
  MEAN CORPUSCULAR HEMOGLOBIN CONCENTRATION: 39.27 G/DL
  MEAN CORPUSCULAR VOLUME: 63.03 fL
  MONOCYTE: 0.67%
  NEUTROPHIL: 7%
  NUCLEATED RED BLOOD CELLS: 0 /100WBC
  PLATELET COUNT: 1244.33 x10E3/uL
  ALANINE AMINOTRANSFERASE: 175.67 u/L
  ALBUMIN: 4.63 G/DL
  ALKALINE PHOSPHATASE: 577.33 u/L
  ASPARTATE AMINOTRANSFERASE: 151.33 u/L
  BLOOD UREA NITROGEN: 10.67 mg/dL
  CARBON DIOXIDE: 24.67 mmol/L
  CHLORIDE: 101.67 MEQ/L
  CHOLESTEROL: 52.67 mg/dL
  CREATINE PHOSPHOKINASE: 399.67 u/L
  CREATININE: 0.22 mg/dL
  GLUCOSE: 152.67 mg/dL
  LACTATE DEHYDROGENASE: 140.33 u/L
  LIPASE: 60.67 u/L
  PHOSPHORUS: 9.5 mg/dL
  POTASSIUM: 5.73 MEQ/L
  SODIUM: 145.97 MEQ/L
  TOTAL BILIRUBIN: 0.37 mg/dL
  TOTAL PROTEIN: 6.07 G/DL
  URIC ACID: 0.9 mg/dL
[2]
  ABSOLUTE BASOPHIL: 0 CELLS/uL
  ABSOLUTE EOSINOPHIL: 0 CELLS/uL
  ABSOLUTE LYMPHOCYTE: 8659.67 CELLS/uL
  ABSOLUTE MONOCYTE: 90 CELLS/uL
  ABSOLUTE SEGMENTED NEUTROPHIL: 583.67 CELLS/uL
  BASOPHIL: 0%
  EOSINOPHIL: 0%
  ERYTHROCYTE COUNT: 5.09 x10E6/uL
  HEMATOCRIT: 32.3%
  HEMOGLOBIN: 12.6 G/DL
  LEUKOCYTE COUNT: 9.33 x10E3/uL
  LYMPHOCYTE: 92.67%
  MEAN CORPUSCULAR HEMOGLOBIN: 24.77 pg
  MEAN CORPUSCULAR HEMOGLOBIN CONCENTRATION: 39.03 G/DL
  MEAN CORPUSCULAR VOLUME: 63.43 fL
  MONOCYTE: 1%
  NEUTROPHIL: 6.33%
  NUCLEATED RED BLOOD CELLS: 0 /100WBC
  PLATELET COUNT: 1132.33 x10E3/uL
  ALANINE AMINOTRANSFERASE: 62 u/L
  ALBUMIN: 4.07 G/DL
  ALKALINE PHOSPHATASE: 560.67 u/L
  ASPARTATE AMINOTRANSFERASE: 82.67 u/L
  BLOOD UREA NITROGEN: 12.33 mg/dL
  CARBON DIOXIDE: 26 mmol/L
  CHLORIDE: 112 MEQ/L
  CHOLESTEROL: 33.67 mg/dL
  CREATINE PHOSPHOKINASE: 218.33 u/L
  CREATININE: 0.14 mg/dL
  GLUCOSE: 166.67 mg/dL
  LACTATE DEHYDROGENASE: 156.33 u/L
  LIPASE: 9.33 u/L
  PHOSPHORUS: 9.23 mg/dL
  POTASSIUM: 5.66 MEQ/L
  SODIUM: 156.57 MEQ/L
  TOTAL BILIRUBIN: 0.17 mg/dL
  TOTAL PROTEIN: 5.77 G/DL
  URIC ACID: 0.9 mg/dL
[3]
  ABSOLUTE BASOPHIL: 0 CELLS/uL
  ABSOLUTE EOSINOPHIL: 60.67 CELLS/uL
  ABSOLUTE LYMPHOCYTE: 7091.67 CELLS/uL
  ABSOLUTE MONOCYTE: 0 CELLS/uL
  ABSOLUTE SEGMENTED NEUTROPHIL: 581 CELLS/uL
  BASOPHIL: 0%
  EOSINOPHIL: 0.67%
  ERYTHROCYTE COUNT: 5.48 x10E6/uL
  HEMATOCRIT: 34.67%
  HEMOGLOBIN: 13.4 G/DL
  LEUKOCYTE COUNT: 7.73 x10E3/uL
  LYMPHOCYTE: 91.67%
  MEAN CORPUSCULAR HEMOGLOBIN: 24.53 pg
  MEAN CORPUSCULAR HEMOGLOBIN CONCENTRATION: 38.7 G/DL
  MEAN CORPUSCULAR VOLUME: 63.4 fL
  MONOCYTE: 0%
  NEUTROPHIL: 7.67%
  NUCLEATED RED BLOOD CELLS: 0 /100WBC
  PLATELET COUNT: 1069.33 x10E3/uL
  ALANINE AMINOTRANSFERASE: 63.33 u/L
  ALBUMIN: 3.97 G/DL
  ALKALINE PHOSPHATASE: 478 u/L
  ASPARTATE AMINOTRANSFERASE: 92 u/L
  BLOOD UREA NITROGEN: 11.33 mg/dL
  CARBON DIOXIDE: 29.67 mmol/L
  CHLORIDE: 98.33 MEQ/L
  CHOLESTEROL: 40.67 mg/dL
  CREATINE PHOSPHOKINASE: 375.33 u/L
  CREATININE: 0.14 mg/dL
  GLUCOSE: 160 mg/dL
  LACTATE DEHYDROGENASE: 97.33 u/L
  LIPASE: 9 u/L
  PHOSPHORUS: 11.03 mg/dL
  POTASSIUM: 5.44 MEQ/L
  SODIUM: 144.03 MEQ/L
  TOTAL BILIRUBIN: 0.13 mg/dL
  TOTAL PROTEIN: 6.13 G/DL
  URIC ACID: 0.43 mg/dL
